Data as given in ChEMBL document CHEMBL1201862, “PubChem BioAssay data set” (2004).
Counter-ions that a name gives are not always drawn.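 Interpolation was linear, between the two tested concentrations surrounding the appropriate level; five concentrations were tested over 48 hours in 96-well plates. GI50 is the concentration that inhibits growth by half.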 Active and inactive are the calls of the source. No stated cut-off is given here; in the data, active = GI50 up to about 1.1 µM and inactive = higher.

Experiments:
Test in all cases: NCI-60 cell line screen, 48 h
HOP-18 = system: HOP-18
RXF 631 = system: RXF 631
M19-MEL = system: M19-MEL
DMS-114 = system: DMS-114
SNB-78 = system: SNB-78
DLD-1 = system: DLD-1
KM-20L2 = system: KM-20L2
T47D = system: T47D
LXFL 529 = system: LXFL 529

SMILES | GI50 (HOP-18) | GI50 (RXF 631) | GI50 (M19-MEL) | GI50 (DMS-114) | GI50 (SNB-78) | GI50 (DLD-1) | GI50 (KM-20L2) | GI50 (T47D) | GI50 (LXFL 529)
O=C1CCC(=O)C1=NNc1cc(Cl)cc(Cl)c1 | > 100 µM (inactive) | > 100 µM (inactive) | > 100 µM (inactive) | 98.2 µM (inactive) | > 100 µM (inactive) | > 100 µM (inactive) |  |  | 
CNC1C(O)CC(OC2C/C=C(\C)C/C(C)=C/C=C/CCC(C)CNC(=O)/C=C/C=C/C2C)OC1C (stereo not given) | 1.77 µM (inactive) | 0.206 µM (active) | 0.714 µM (active) | 0.463 µM (active) | 1.66 µM (inactive) | 0.26 µM (active) | 0.63 µM (active) | 0.783 µM (active) | 0.14 µM (active)
CN(C)c1ccc(/C=c2\sc3nnc(-c4ccco4)n3c2=O)cc1 | > 100 µM (inactive) | > 100 µM (inactive) | > 100 µM (inactive) | > 100 µM (inactive) | > 100 µM (inactive) | > 100 µM (inactive) | > 100 µM (inactive) |  | > 100 µM (inactive)
OCC(CO)C1c2cccc3ccc4cccc1c4c23 | > 100 µM (inactive) | > 100 µM (inactive) | > 100 µM (inactive) | > 100 µM (inactive) | > 100 µM (inactive) | > 100 µM (inactive) | > 100 µM (inactive) |  | 
CC(C)(C)c1cc(C(O)(C(F)(F)F)C(F)(F)F)c2c(c1)C(C(F)(F)F)(C(F)(F)F)OC(C(C)(C)C)N2 (stereo not given) | 2.55 µM (inactive) | 2.15 µM (inactive) | 2.47 µM (inactive) | 1.12 µM (inactive) | 2.75 µM (inactive) | 4.21 µM (inactive) | 2.86 µM (inactive) |  | 2.82 µM (inactive)
CC(/C=C/C(=O)c1sc(C(N)=S)nc1C)=C\c1ccccc1 | > 100 µM (inactive) | 40.6 µM (inactive) | > 100 µM (inactive) | 17 µM (inactive) | > 100 µM (inactive) | 21 µM (inactive) | 80.2 µM (inactive) |  | > 100 µM (inactive)
COC(=O)/C=C(\C(=O)OC)c1c2c3c(cc(OC)c(OC)c3c3ccccc13)CCN2C | 64.9 µM (inactive) | 33.8 µM (inactive) | 33 µM (inactive) | 27.9 µM (inactive) | 37.8 µM (inactive) | 22.3 µM (inactive) | 12.6 µM (inactive) |  | 42.1 µM (inactive)
COc1cc2[nH]c3c(c2cc1OC)CCN[C@]31CC[C@]2(CC3c4c(cc(OC)c(O)c42)CCN3C)C[C@H]1OC (stereo not given in full) | 18 µM (inactive) | 11.7 µM (inactive) | 17.9 µM (inactive) | 17.3 µM (inactive) | 29.1 µM (inactive) | 24.4 µM (inactive) | 28.1 µM (inactive) |  | 24.5 µM (inactive)
O=C1Cc2c([nH]c3ccccc23)-c2cc(Br)ccc2N1 | > 100 µM (inactive) | > 100 µM (inactive) | > 100 µM (inactive) | > 100 µM (inactive) | > 100 µM (inactive) | > 100 µM (inactive) | > 100 µM (inactive) |  | > 100 µM (inactive)
COc1ccc2[nH]c3c(cnn4cnnc34)c2c1 | > 100 µM (inactive) | > 100 µM (inactive) | > 100 µM (inactive) | > 100 µM (inactive) |  | > 100 µM (inactive) | > 100 µM (inactive) |  | > 100 µM (inactive)
COC(=O)C1=CO[C@@H](C)[C@@H]2Cn3ccc4c5ccccc5nc-4c3C[C@H]12 [ALSTONINE HYDROCHLORIDE] | 32.7 µM (inactive) | > 100 µM (inactive) | > 100 µM (inactive) | > 100 µM (inactive) | > 100 µM (inactive) | > 100 µM (inactive) | > 100 µM (inactive) |  | > 100 µM (inactive)
